From PubChem BioAssay (NCI)
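Each compound was tested at five concentrations against cells in 96-well plates for 48 hours. At the GI50, growth is halved. TGI denotes the concentration required for complete inhibition of growth.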 *1 amine or outer side, *2 acyl side, *3 side chain or, on linkers, in order; H or OH if unused. Where a SMILES comes first, the peptide text is derived from it. [ ]: non-standard residue; d: D form. The star is where a group is joined. X41 = CCC(=O)CC1CC(C)CC(C(=O)[*:2])N1[*:1]; X40 = CCCCCCCCC(C)C(=O)*; Aib = CC(C)(N)C(=O)O; X42 = CC(CN(C)CCO)N*

How the values were obtained:
Test in all cases: growth of human tumour cells (NCI), 48 h
PC-3 prostate = test system: PC-3 prostate
A549 NSCLC = test system: A549 NSCLC
ACHN renal = test system: ACHN renal
COLO 205 colon = test system: COLO 205 colon
EKVX NSCLC = test system: EKVX NSCLC
HCT-15 colon = test system: HCT-15 colon
HOP-62 NSCLC = test system: HOP-62 NSCLC
HOP-92 NSCLC = test system: HOP-92 NSCLC
HS 578T breast = test system: HS 578T breast
HT29 colon = test system: HT29 colon
IGROV1 ovarian = test system: IGROV1 ovarian
LOX IMVI melanoma = test system: LOX IMVI melanoma
M14 melanoma = test system: M14 melanoma
MALME-3M melanoma = test system: MALME-3M melanoma
MDA-MB-231 breast = test system: MDA-MB-231 breast
MOLT-4 leukemia = test system: MOLT-4 leukemia
NCI-H460 lung = test system: NCI-H460 lung
NCI-H522 lung = test system: NCI-H522 lung
NCI/ADR-RES ovarian = test system: NCI/ADR-RES ovarian
OVCAR-3 ovarian = test system: OVCAR-3 ovarian
OVCAR-4 ovarian = test system: OVCAR-4 ovarian
OVCAR-8 ovarian = test system: OVCAR-8 ovarian
SF-268 CNS = test system: SF-268 CNS
SF-295 CNS = test system: SF-295 CNS
SK-MEL-2 melanoma = test system: SK-MEL-2 melanoma
SK-MEL-5 melanoma = test system: SK-MEL-5 melanoma
SK-OV-3 ovarian = test system: SK-OV-3 ovarian
SN12C renal = test system: SN12C renal
SNB-75 CNS = test system: SNB-75 CNS
SR leukemia = test system: SR leukemia
SW-620 colon = test system: SW-620 colon
T-47D breast = test system: T-47D breast
UACC-257 melanoma = test system: UACC-257 melanoma
UACC-62 melanoma = test system: UACC-62 melanoma
786-0 renal = test system: 786-0 renal
BT-549 breast = test system: BT-549 breast
CAKI-1 renal = test system: CAKI-1 renal
DU-145 prostate = test system: DU-145 prostate
HCC-2998 colon = test system: HCC-2998 colon
HCT-116 colon = test system: HCT-116 colon
KM12 colon = test system: KM12 colon
MCF7 breast = test system: MCF7 breast
MDA-MB-435 = test system: MDA-MB-435
NCI-H23 lung = test system: NCI-H23 lung
OVCAR-5 ovarian = test system: OVCAR-5 ovarian
RXF 393 renal = test system: RXF 393 renal
SF-539 CNS = test system: SF-539 CNS
SK-MEL-28 melanoma = test system: SK-MEL-28 melanoma
SNB-19 CNS = test system: SNB-19 CNS
TK-10 renal = test system: TK-10 renal
UO-31 renal = test system: UO-31 renal
NCI-H226 lung = test system: NCI-H226 lung
CCRF-CEM leukemia = test system: CCRF-CEM leukemia
HL-60(TB) leukemia = test system: HL-60(TB) leukemia
K-562 leukemia = test system: K-562 leukemia
RPMI-8226 leukemia = test system: RPMI-8226 leukemia
U251 CNS = test system: U251 CNS

CC(=O)OCC(=O)[C@@]1(O)CC[C@H]2[C@@H]3CCC4=CC(=O)C=C[C@]4(C)[C@@]3(F)[C@@H](O)C[C@@]21C
TGI (PC-3 prostate): > 100 µM

c1ccc2c3nnc(c2c1)SCCSCCSc1nnc(c2ccccc12)SCCSCCS3
TGI (A549 NSCLC): > 100 µM
TGI (ACHN renal): > 100 µM
TGI (COLO 205 colon): > 100 µM
TGI (EKVX NSCLC): > 100 µM
TGI (HCT-15 colon): > 100 µM
TGI (HOP-62 NSCLC): > 100 µM
TGI (HOP-92 NSCLC): > 100 µM
TGI (HS 578T breast): > 100 µM
TGI (HT29 colon): > 100 µM
TGI (IGROV1 ovarian): > 100 µM
TGI (LOX IMVI melanoma): > 100 µM
TGI (M14 melanoma): > 100 µM
TGI (MALME-3M melanoma): > 100 µM
TGI (MDA-MB-231 breast): > 100 µM
TGI (MOLT-4 leukemia): > 100 µM
TGI (NCI-H460 lung): > 100 µM
TGI (NCI-H522 lung): > 100 µM
TGI (NCI/ADR-RES ovarian): > 100 µM
TGI (OVCAR-3 ovarian): > 100 µM
TGI (OVCAR-4 ovarian): > 100 µM
TGI (OVCAR-8 ovarian): > 100 µM
TGI (PC-3 prostate): > 100 µM
TGI (SF-268 CNS): > 100 µM
TGI (SF-295 CNS): > 100 µM
TGI (SK-MEL-2 melanoma): > 100 µM
TGI (SK-MEL-5 melanoma): > 100 µM
TGI (SK-OV-3 ovarian): > 100 µM
TGI (SN12C renal): > 100 µM
TGI (SNB-75 CNS): > 100 µM
TGI (SR leukemia): > 100 µM
TGI (SW-620 colon): > 100 µM
TGI (T-47D breast): > 100 µM
TGI (UACC-257 melanoma): > 100 µM
TGI (UACC-62 melanoma): > 100 µM

COc1ccc(-c2ccc(-c3ccc(C(=N)N)cn3)s2)cc1Cl
GI50 (786-0 renal): 1.98 µM
TGI (786-0 renal): 4.03 µM
GI50 (ACHN renal): 1.64 µM
TGI (ACHN renal): 3 µM
GI50 (BT-549 breast): 1.67 µM
TGI (BT-549 breast): 3.43 µM
GI50 (CAKI-1 renal): 1.65 µM
TGI (CAKI-1 renal): 3.03 µM
GI50 (COLO 205 colon): 1.41 µM
TGI (COLO 205 colon): 3.15 µM
GI50 (DU-145 prostate): 1.69 µM
TGI (DU-145 prostate): 3.06 µM
GI50 (EKVX NSCLC): 1.75 µM
TGI (EKVX NSCLC): 3.41 µM
GI50 (HCC-2998 colon): 1.89 µM
TGI (HCC-2998 colon): 3.69 µM
GI50 (HCT-116 colon): 1.84 µM
TGI (HCT-116 colon): 3.82 µM
GI50 (HCT-15 colon): 1.62 µM
TGI (HCT-15 colon): 3.01 µM
GI50 (HOP-62 NSCLC): 1.79 µM
TGI (HOP-62 NSCLC): 3.83 µM
GI50 (HOP-92 NSCLC): 1.68 µM
TGI (HOP-92 NSCLC): 3.66 µM
GI50 (HS 578T breast): 1.79 µM
TGI (HS 578T breast): 3.8 µM
GI50 (HT29 colon): 1.18 µM
TGI (HT29 colon): 2.87 µM
GI50 (IGROV1 ovarian): 1.57 µM
TGI (IGROV1 ovarian): 3.28 µM
GI50 (KM12 colon): 1.65 µM
TGI (KM12 colon): 3.04 µM
GI50 (LOX IMVI melanoma): 1.63 µM
TGI (LOX IMVI melanoma): 3.08 µM
GI50 (M14 melanoma): 1.81 µM
TGI (M14 melanoma): 3.44 µM
GI50 (MALME-3M melanoma): 1.3 µM
TGI (MALME-3M melanoma): 2.9 µM
GI50 (MCF7 breast): 1.52 µM
TGI (MCF7 breast): 3.29 µM
GI50 (MDA-MB-231 breast): 1.62 µM
TGI (MDA-MB-231 breast): 3.23 µM
GI50 (MDA-MB-435): 1.43 µM
TGI (MDA-MB-435): 2.73 µM
GI50 (NCI-H23 lung): 1.83 µM
TGI (NCI-H23 lung): 3.72 µM
GI50 (NCI-H460 lung): 1.61 µM
TGI (NCI-H460 lung): 3.02 µM
GI50 (NCI-H522 lung): 1.95 µM
TGI (NCI-H522 lung): 4.46 µM
GI50 (NCI/ADR-RES ovarian): 1.92 µM
TGI (NCI/ADR-RES ovarian): 3.84 µM
GI50 (OVCAR-3 ovarian): 1.83 µM
TGI (OVCAR-3 ovarian): 3.32 µM
GI50 (OVCAR-4 ovarian): 1.61 µM
TGI (OVCAR-4 ovarian): 3.3 µM
GI50 (OVCAR-5 ovarian): 1.55 µM
TGI (OVCAR-5 ovarian): 3.02 µM
GI50 (OVCAR-8 ovarian): 2.09 µM
TGI (OVCAR-8 ovarian): 4.58 µM
GI50 (PC-3 prostate): 1.77 µM
TGI (PC-3 prostate): 3.51 µM
GI50 (RXF 393 renal): 1.98 µM
TGI (RXF 393 renal): 3.87 µM
GI50 (SF-268 CNS): 1.8 µM
TGI (SF-268 CNS): 3.43 µM
GI50 (SF-295 CNS): 1.72 µM
TGI (SF-295 CNS): 3.27 µM
GI50 (SF-539 CNS): 1.64 µM
TGI (SF-539 CNS): 3.11 µM
GI50 (SK-MEL-2 melanoma): 2.01 µM
TGI (SK-MEL-2 melanoma): 4.14 µM
GI50 (SK-MEL-28 melanoma): 1.72 µM
TGI (SK-MEL-28 melanoma): 3.35 µM
GI50 (SK-MEL-5 melanoma): 1.82 µM
TGI (SK-MEL-5 melanoma): 3.32 µM
GI50 (SK-OV-3 ovarian): 1.65 µM
TGI (SK-OV-3 ovarian): 3.41 µM
GI50 (SN12C renal): 1.69 µM
TGI (SN12C renal): 3.39 µM
GI50 (SNB-19 CNS): 1.73 µM
TGI (SNB-19 CNS): 3.61 µM
GI50 (SNB-75 CNS): 1.45 µM
TGI (SNB-75 CNS): 2.85 µM
GI50 (SW-620 colon): 1.4 µM
TGI (SW-620 colon): 2.73 µM
GI50 (TK-10 renal): 1.79 µM
TGI (TK-10 renal): 3.41 µM
GI50 (UACC-62 melanoma): 1.88 µM
TGI (UACC-62 melanoma): 3.65 µM
GI50 (UO-31 renal): 1.59 µM
TGI (UO-31 renal): 3.09 µM

CCCCCCCCC(C)C(=O)N1CCCC1C(=O)N1C(CC(=O)CC)CC(C)CC1C(=O)NC(C)C(=O)NC(C)(C)C(=O)NC(C)(C)C(=O)NC(C(=O)NC(C)C(=O)NC(C)(C)C(=O)NC(C)(C)C(=O)NC(C)CN(C)CCO)C(C)CC (stereo unspecified) (X40-P[X41]A[Aib][Aib]IA[Aib][Aib]-X42; configuration not given here)
TGI (BT-549 breast): 6.63 µM
TGI (HOP-92 NSCLC): 0.0435 µM
TGI (NCI-H226 lung): 1.22 µM
TGI (NCI-H23 lung): 1.05 µM
TGI (UACC-257 melanoma): 2.5 µM

Nc1ncc(Cc2nc3ccccc3s2)s1
TGI (786-0 renal): > 100 µM
TGI (A549 NSCLC): > 100 µM
TGI (ACHN renal): > 100 µM
TGI (CAKI-1 renal): > 100 µM
TGI (CCRF-CEM leukemia): > 100 µM
TGI (COLO 205 colon): > 100 µM
TGI (DU-145 prostate): > 100 µM
TGI (EKVX NSCLC): > 100 µM
TGI (HCC-2998 colon): > 100 µM
TGI (HCT-116 colon): > 100 µM
TGI (HCT-15 colon): > 100 µM
TGI (HL-60(TB) leukemia): > 100 µM
TGI (HOP-62 NSCLC): > 100 µM
TGI (HOP-92 NSCLC): > 100 µM
TGI (HS 578T breast): 96.4 µM
TGI (HT29 colon): > 100 µM
TGI (IGROV1 ovarian): > 100 µM
TGI (K-562 leukemia): > 100 µM
TGI (KM12 colon): > 100 µM
TGI (LOX IMVI melanoma): > 100 µM
TGI (M14 melanoma): > 100 µM
TGI (MALME-3M melanoma): > 100 µM
TGI (MCF7 breast): > 100 µM
TGI (MDA-MB-231 breast): > 100 µM
TGI (MDA-MB-435): > 100 µM
TGI (MOLT-4 leukemia): > 100 µM
TGI (NCI-H226 lung): 92.8 µM
TGI (NCI-H460 lung): > 100 µM
TGI (NCI-H522 lung): > 100 µM
TGI (NCI/ADR-RES ovarian): > 100 µM
TGI (OVCAR-3 ovarian): > 100 µM
TGI (OVCAR-4 ovarian): > 100 µM
TGI (OVCAR-5 ovarian): > 100 µM
TGI (OVCAR-8 ovarian): > 100 µM
TGI (PC-3 prostate): > 100 µM
TGI (RPMI-8226 leukemia): > 100 µM
TGI (RXF 393 renal): > 100 µM
TGI (SF-268 CNS): > 100 µM
TGI (SF-295 CNS): > 100 µM
TGI (SF-539 CNS): > 100 µM
TGI (SK-MEL-2 melanoma): > 100 µM
TGI (SK-MEL-28 melanoma): > 100 µM
TGI (SK-MEL-5 melanoma): > 100 µM
TGI (SK-OV-3 ovarian): > 100 µM
TGI (SN12C renal): > 100 µM
TGI (SNB-19 CNS): > 100 µM
TGI (SNB-75 CNS): > 100 µM
TGI (SW-620 colon): > 100 µM
TGI (T-47D breast): > 100 µM
TGI (TK-10 renal): > 100 µM
TGI (U251 CNS): > 100 µM
TGI (UACC-257 melanoma): > 100 µM
TGI (UACC-62 melanoma): > 100 µM
TGI (UO-31 renal): > 100 µM
